Test results taken from patent publication US12180207B2 (ARRAY BIOPHARMA INC., priority 2018, dated 2024).

Tests used:
[1] = biological target: HEK-293 cells transfected with dox-inducible human wild type FGFR1 (Homo sapiens (Human), UniProt P11362); experiment: FGFR1 pERK cell assay; type: cell-based; settings: HEK-293 dox-inducible FGFR1, 1 hour compound, 100 ng/ml FGF-acidic; maximum concentration 5 μM
Experimental: FGFR1 pERK Cell Assay: • HEK-293 cells transfected with doxycycline(dox)-inducible human wild type FGFR1 (SEQ ID NO: 1) were plated in a collagen or poly-D-lysine coated 96 well flat bottom plates at 4×10^5 cells/well in complete Dulbecco's Modified Eagle Medium (DMEM) containing 10% FBS and 1 μg/ml doxycycline and allowed to attach for 24 h at 37° C., 5% CO2. Cells were treated with compound using 1:3 serial dilutions with a maximum final concentration of 5 μM. Compound was incubated on cells for 1 hour at 37° C., 5% CO2. Cells were then stimulated with a final concentration of 100 ng/ml human FGF-acidic (R&D Systems Cat number 232-FA/CF) for 5 minutes at 37° C., 5% CO2. Medium was removed, and cells were lysed with lysis buffer containing phosphatase and protease inhibitors. Phospho ERK1/2 was measured using the Meso Scale Discovery sandwich assay (Meso Scale Discovery cat. no. K151DWD). The assay captures phospho ERK1/2 and detects with a sulfo-tagged total ERK1/2 antibody. The chemiluminescent signal was read on the Sector Imager Plate reader. 100 POC was determined using no test compound and 0 POC was determined using a control compound. The POC values were fit to a 4-parameter logistic curve as a function of the concentration of the compound, and the IC50 value is the point where the curve crosses 50 POC.

[2] = biological target: recombinant human FGFR2 cytoplasmic domain (amino acids 403-822) (Homo sapiens (Human), UniProt P21802); experiment: FGFR2 enzyme activity assay (LanthaScreen TR-FRET); type: biochemical; settings: 15 μM ATP, 20 min incubation at 22° C., average of multiple determinations if made, read-out: FGFR2 Enz FRET IC50
Sequence of recombinant human FGFR2 cytoplasmic domain (amino acids 403-822) (P21802 402-821): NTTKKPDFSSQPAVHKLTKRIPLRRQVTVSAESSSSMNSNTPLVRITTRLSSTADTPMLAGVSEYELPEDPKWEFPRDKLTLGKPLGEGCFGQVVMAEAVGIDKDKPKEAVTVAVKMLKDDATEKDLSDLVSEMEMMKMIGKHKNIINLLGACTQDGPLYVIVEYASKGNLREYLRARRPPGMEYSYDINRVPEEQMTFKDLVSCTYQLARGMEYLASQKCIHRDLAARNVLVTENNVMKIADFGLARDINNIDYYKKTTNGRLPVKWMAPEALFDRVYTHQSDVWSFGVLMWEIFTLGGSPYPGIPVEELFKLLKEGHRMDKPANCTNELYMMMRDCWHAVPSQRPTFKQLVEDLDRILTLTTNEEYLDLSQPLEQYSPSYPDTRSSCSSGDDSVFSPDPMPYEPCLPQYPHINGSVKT
Outline: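 His-tagged FGFR2 cytoplasmic domain ([…]) with 100 nM Alexa Fluor 647-poly-GT peptide and 15 μM ATP in HEPES/MgCl2/Triton buffer, pH 7.5, 2% DMSO, 20 min at 22 °C. EDTA-quenched, Eu-PY20 antibody added, TR-FRET read after 60 min.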

[3] = biological target: phosphorylated FGFR3 (SEQ ID NO: 5, amino acids 449 to 759) (Homo sapiens (Human), UniProt P22607); experiment: FGFR enzyme binding assay (HTRF tracer displacement), FGFR3; settings: 5 nM phosphorylated FGFR3, average of multiple determinations if made
Sequence of phosphorylated FGFR3 (SEQ ID NO: 5, amino acids 449 to 759) (P22607 449-759): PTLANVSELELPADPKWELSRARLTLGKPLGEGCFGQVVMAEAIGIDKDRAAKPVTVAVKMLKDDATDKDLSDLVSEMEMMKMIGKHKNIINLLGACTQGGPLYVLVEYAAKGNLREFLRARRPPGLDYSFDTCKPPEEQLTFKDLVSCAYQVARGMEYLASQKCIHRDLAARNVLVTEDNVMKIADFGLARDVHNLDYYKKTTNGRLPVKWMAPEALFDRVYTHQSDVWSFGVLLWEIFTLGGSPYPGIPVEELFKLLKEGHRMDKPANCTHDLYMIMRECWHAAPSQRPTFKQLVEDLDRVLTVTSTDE
Outline: (§1)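 Compounds were tested for displacement of a tracer from human FGFR kinase in a time-resolved FRET binding format. After 60 minutes at 22° C, signal was read at two wavelengths and converted to percent of control, normalised between untreated wells and 1 μM reference inhibitor.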

[4] = biological target: FGFR3 (SEQ ID NO: 5, amino acids 449-759) (Homo sapiens (Human), UniProt P22607); experiment: LC/MS FGFR3 kobs assay (covalent protein modification); type: binding; settings: 500 nM FGFR3, 3 μM compound
Sequence of FGFR3 (SEQ ID NO: 5, amino acids 449-759) (P22607 449-759): as above
Outline: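 The observed rate constant kobs comes from an exponential decay fit of percent unmodified kinase over time. Covalent modification was quantified by Q-TOF LC/MS of formic acid-quenched samples, normalized against DMSO controls.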

[5] = biological target: dephosphorylated FGFR1 (SEQ ID NO: 1, amino acids 458 to 765) (Homo sapiens (Human), UniProt P11362); experiment: FGFR enzyme binding assay (HTRF tracer displacement), FGFR1; settings: 5 nM dephosphorylated FGFR1, average of multiple determinations if made
Sequence of dephosphorylated FGFR1 (SEQ ID NO: 1, amino acids 458 to 765) (P11362 458-765): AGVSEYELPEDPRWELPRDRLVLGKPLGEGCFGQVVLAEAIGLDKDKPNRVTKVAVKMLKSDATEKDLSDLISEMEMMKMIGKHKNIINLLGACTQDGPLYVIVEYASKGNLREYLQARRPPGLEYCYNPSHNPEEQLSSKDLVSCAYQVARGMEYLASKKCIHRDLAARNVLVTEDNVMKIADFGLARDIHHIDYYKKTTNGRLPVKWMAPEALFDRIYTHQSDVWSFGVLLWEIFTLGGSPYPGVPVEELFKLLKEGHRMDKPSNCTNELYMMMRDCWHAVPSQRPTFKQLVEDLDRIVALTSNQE
Outline: as §1

[6] = biological target: recombinant human FGFR1 catalytic domain (amino acids 308-731) (Homo sapiens (Human), UniProt P11362); experiment: FGFR1 enzyme activity assay (LanthaScreen TR-FRET); type: biochemical; settings: 20 min incubation at 22° C., average of multiple determinations if made, read-out: FGFR1 Enz FRET IC50
Sequence of recombinant human FGFR1 catalytic domain (amino acids 308-731) (P11362 other isoform, or with tags, fused parts or gaps): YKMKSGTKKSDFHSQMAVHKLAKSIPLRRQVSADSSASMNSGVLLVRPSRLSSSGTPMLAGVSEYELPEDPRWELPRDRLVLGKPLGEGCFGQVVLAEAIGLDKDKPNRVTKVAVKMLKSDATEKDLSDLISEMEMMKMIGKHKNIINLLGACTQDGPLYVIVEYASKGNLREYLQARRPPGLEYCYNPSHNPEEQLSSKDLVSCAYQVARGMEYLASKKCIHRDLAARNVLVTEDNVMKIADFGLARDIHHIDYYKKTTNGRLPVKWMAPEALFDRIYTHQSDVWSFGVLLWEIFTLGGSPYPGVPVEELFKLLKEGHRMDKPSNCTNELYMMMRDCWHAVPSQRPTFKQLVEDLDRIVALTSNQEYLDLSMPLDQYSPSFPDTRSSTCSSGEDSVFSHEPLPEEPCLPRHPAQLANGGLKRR
Outline: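 His-tagged FGFR1 kinase domain with 100 nM Alexa Fluor 647-poly-GT peptide and ATP in pH 7.5 HEPES/MgCl2 buffer with 2% DMSO, 20 min at 22 °C. Quenched with EDTA plus 2 nM Eu-PY20 antibody and read after 60 min. IC50 comes from a 4-parameter fit of percent of control.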

[7] = biological target: FGFR1 (SEQ ID NO: 1, amino acids 458-765) (Homo sapiens (Human), UniProt P11362); experiment: LC/MS FGFR1 kobs assay (covalent protein modification); type: binding; settings: 500 nM FGFR1, 3 μM compound
Sequence of FGFR1 (SEQ ID NO: 1, amino acids 458-765) (P11362 458-765): as the sequence (P11362 458-765) above
Experimental: The LC/MS FGFR1 and FGFR3 kobs assays were conducted as follows. […] At each time point, the reaction was quenched with 20 μL of 0.4% formic acid. The extent of protein modification by each compound was determined by LC/MS on an Agilent Technologies 6520 Q-TOF LC/MS. Protein signals were then automatically deconvoluted using Agilent Masshunter software. Deconvoluted mass signals were exported to Tibco Spotfire data analysis program for further processing and normalization.
Data analysis included five steps. First, the signals for the “DMSO Controls” were analyzed to determine the percent of signal associated with unmodified FGFR1 or FGFR3 at each time point. Next, the percent of the signal associated with the covalent modification was determined. Third, the average nonmodified “DMSO Control” signal was used to normalize the modified protein signals at each time point. The percent of unmodified protein was fit to an exponential decay model where A0 is the Percent Unmodified at the start of the reaction, and kobs is the observed rate constant over the time period.

[8] = biological target: recombinant human FGFR3 (amino acids R397-T806) (Homo sapiens (Human), UniProt P22607); experiment: FGFR3 enzyme activity assay (LanthaScreen TR-FRET); type: biochemical; settings: 25 μM ATP, 10 min incubation at 22° C., average of multiple determinations if made, read-out: FGFR3 Enz FRET IC50
Sequence of recombinant human FGFR3 (amino acids R397-T806) (P22607 397-806): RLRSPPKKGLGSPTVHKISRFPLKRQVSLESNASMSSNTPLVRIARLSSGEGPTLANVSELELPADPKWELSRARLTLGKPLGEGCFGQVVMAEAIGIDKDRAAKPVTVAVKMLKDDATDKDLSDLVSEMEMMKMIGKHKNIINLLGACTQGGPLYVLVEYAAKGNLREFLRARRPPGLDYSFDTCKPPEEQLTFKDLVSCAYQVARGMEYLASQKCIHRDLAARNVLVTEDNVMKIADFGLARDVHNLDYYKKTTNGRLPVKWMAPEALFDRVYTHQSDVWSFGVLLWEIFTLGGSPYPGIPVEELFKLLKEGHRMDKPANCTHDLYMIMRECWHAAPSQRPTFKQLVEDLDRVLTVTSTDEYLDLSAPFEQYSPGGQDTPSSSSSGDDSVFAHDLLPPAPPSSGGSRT
Outline: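 GST-HIS6-tagged human FGFR3 (R397-T806) was reacted with 100 nM Alexa Fluor 647-Poly-GT substrate and 25 μM ATP plus compound in HEPES/MgCl2/Triton buffer, pH 7.5, 2% DMSO, for 10 min at 22 °C.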

Sequence of HEK-293 cells transfected with dox-inducible human wild type FGFR1 (P11362 22-822): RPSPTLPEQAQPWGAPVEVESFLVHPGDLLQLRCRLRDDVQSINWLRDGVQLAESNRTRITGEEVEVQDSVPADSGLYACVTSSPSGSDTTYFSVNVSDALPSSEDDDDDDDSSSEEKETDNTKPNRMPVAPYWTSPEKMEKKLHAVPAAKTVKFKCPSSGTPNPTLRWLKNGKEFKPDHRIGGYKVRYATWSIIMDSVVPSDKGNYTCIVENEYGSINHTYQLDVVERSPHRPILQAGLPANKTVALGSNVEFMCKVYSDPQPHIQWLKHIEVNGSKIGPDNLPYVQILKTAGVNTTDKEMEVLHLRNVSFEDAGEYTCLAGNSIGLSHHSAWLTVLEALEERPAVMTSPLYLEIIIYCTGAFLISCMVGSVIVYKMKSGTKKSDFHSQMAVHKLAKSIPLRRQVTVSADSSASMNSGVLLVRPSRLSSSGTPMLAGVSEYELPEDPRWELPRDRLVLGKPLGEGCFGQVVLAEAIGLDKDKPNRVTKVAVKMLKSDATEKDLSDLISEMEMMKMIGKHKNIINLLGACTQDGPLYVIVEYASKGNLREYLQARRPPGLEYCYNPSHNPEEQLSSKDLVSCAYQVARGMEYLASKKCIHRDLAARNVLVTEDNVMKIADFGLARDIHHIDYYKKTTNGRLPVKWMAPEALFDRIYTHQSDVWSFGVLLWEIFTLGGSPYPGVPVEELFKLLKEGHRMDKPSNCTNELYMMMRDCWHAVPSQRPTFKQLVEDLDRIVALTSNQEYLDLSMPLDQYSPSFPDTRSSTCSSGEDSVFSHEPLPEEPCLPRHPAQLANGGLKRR

Row | Structure (SMILES) | IC50 [1] [nM] | IC50 [2] [nM] | IC50 [3] [nM] | FGFR3 Enz kobs [4] [min⁻¹] | IC50 [5] [nM] | IC50 [6] [nM] | FGFR1 Enz kobs [7] [min⁻¹] | IC50 [8] [nM]
1 | C=CC(=O)N1CCC(NC(=O)c2ccc(-c3cc(OC)c4c(C#N)cnn4c3)cc2)CC1 [Example 166, N-(1-acryloylpiperidin-4-yl)-4-(3-cyano-4-methoxypyrazolo [1,5-a]pyridin-6-yl)benzamide] | – | 15 | 48 | 0.00177 | 129 | 61 | 0.00032 | 14
2 | C=CC(=O)N1CCN(C(=O)N2CCC(n3cc(-c4cc(OC)c5c(C#N)cnn5c4)cn3)CC2)CC1 [Example 2, 6-(1-(1-(4-acryloylpiperazine-1-carbonyl)piperidin-4-yl)-1H-pyrazol-4-yl)-4-methoxypyrazolo[1,5-a]pyridine-3-carbonitrile] | – | 14 | 4 | 0.00444 | 45 | 4 | 0.00076 | 4
3 | C=CC(=O)NC1CCC(NC(=O)c2ccc(-c3cc(OC)c4c(C#N)cnn4c3)cc2)CC1 (centres unmarked) [Example 167, N-(4-acrylamido-cyclohexyl)-4-(3-cyano-4-methoxypyrazolo [1,5-a]pyridin-6-yl)benzamide] | – | 18 | 192 | 0.00039 | 1120 | 68 | 0.00004 | 17
4 | C=CC(=O)NC1CCN(C(=O)c2ccc(-c3cc(OC)c4c(C#N)cnn4c3)cc2)CC1 [Example 165, N-(1-(4-(3-cyano-4-methoxypyrazolo [1,5-a]pyridin-6-yl)benzoyl)piperidin-4-yl)acrylamide] | – | 18 | 223 | 0.0002 | 800 | 62 | 0.00005 | 15
5 | C=CC(=O)N1CC(C(=O)N2CCN(c3ncc(-c4cc(OC)c5c(C#N)cnn5c4)cn3)CC2)C1 [Example 133, 6-(2-(4-(1-acryloylazetidine-3-carbonyl)piperazin-1-yl)pyrimidin-5-yl)-4-methoxypyrazolo[1,5-a]pyridine-3-carbonitrile] | – | 63 | 160 | 0.02206 | 2930 | 119 | 0.00274 | 264
6 | C=CC(=O)N1CCN(c2ccc(-c3cc(OC)c4c(C#N)cnn4c3)cc2)CC1 [Example 99, 6-(4-(4-acryloylpiperazin-1-yl)phenyl)-4-methoxypyrazolo[1,5-a]pyridine-3-carbonitrile] | – | 5 | 5 | 0.00353 | 47 | 13 | 0.00044 | 3

Next, values leading:

Row | IC50 [1] [nM] | IC50 [2] [nM] | IC50 [3] [nM] | FGFR3 Enz kobs [4] [min⁻¹] | IC50 [5] [nM] | IC50 [6] [nM] | FGFR1 Enz kobs [7] [min⁻¹] | IC50 [8] [nM] | Structure (SMILES)
7 | 401 | – | – | – | – | – | – | – | C=CS(=O)(=O)N[C@H]1C[C@H](C(=O)N2CCC(n3cc(-c4cc(OC)c5c(C#N)cnn5c4)cn3)CC2)C1 [Example 194, N-((1r,3r)-3-(4-(4-(3-cyano-4-methoxypyrazolo[1,5-a]pyridin-6-yl)-1H-pyrazol-1-yl)piperidine-1-carbonyl)cyclobutyl) ethenesulfonamide]
8 | – | 14 | 22 | 0.002 | 120 | 39 | 0.00081 | 13 | C=CC(=O)N1CCC(C(=O)N2CC(n3cc(-c4cc(OC)c5c(C#N)cnn5c4)cn3)C2)CC1 [Example 75, 6-(1-(1-(1-acryloylpiperidine-4-carbonyl)azetidin-3-yl)-1H-pyrazol-4-yl)-4-methoxypyrazolo[1,5-a]pyridine-3-carbonitrile]
9 | 328 | – | – | – | – | – | – | – | C=CS(=O)(=O)N[C@H]1C[C@@H](C(=O)N2CCC(n3cc(-c4cc(OC)c5c(C#N)cnn5c4)cn3)CC2)C1 [Example 193, N-((1s,3s)-3-(4-(4-(3-cyano-4-methoxypyrazolo[1,5-a]pyridin-6-yl)-1H-pyrazol-1-yl)piperidine-1-carbonyl)cyclobutyl) ethenesulfonamide]
10 | – | 5 | 22 | 0.00501 | 177 | 35 | 0.00093 | 4 | C=CC(=O)N1CC2(CC(C(=O)N3CCC(n4cc(-c5cc(OC)c6c(C#N)cnn6c5)cn4)CC3)C2)C1 [Example 47, 6-(1-(1-(2-acryloyl-2-azaspiro[3.3]heptane-6-carbonyl)piperidin-4-yl)-1H-pyrazol-4-yl)-4-methoxypyrazolo[1,5-a]pyridine-3-carbonitrile]
11 | – | 7 | 25 | 0.0015 | 214 | 34 | 0.00051 | 6 | C=CC(=O)N1CC[C@H](C(=O)N2CC[C@@H](n3cc(-c4cc(OC)c5c(C#N)cnn5c4)cn3)C2)C1 [Example 57, 6-(1-((R)-1-((S)-1-acryloylpyrrolidine-3-carbonyl)pyrrolidin-3-yl)-1H-pyrazol-4-yl)-4-methoxypyrazolo[1,5-a]pyridine-3-carbonitrile]
